Values of other authors, collected in patent US20090202442A1, “Enerceutical activation of the alternative cellular energy (ACE) pathway in therapy of diseases” (priority 2008, published 2009).

System: herpes simplex virus (HSV), herpes zoster virus (HZV) and human papillomavirus (HPV) infections

In the case of `Cc1cc2nc3ccc(N(C)C)cc3nc2cc1N.Cl` [neutral red], the “healing of active skin lesions” value (neutral red dye triggered UV fluorescence, HSV, HZV, HPV lesions) is given as “successfully used in expediting the healing” and the “future outbreaks of recurrent herpes” value (patients with prior history of recurrent herpes, treated when no active lesion present) is given as “successfully used in preventing future outbreaks”.
